The text below walks through data of US6608082B1, “Treatment of erectile dysfunction using isoquinoline compound melanocortin receptor ligands” (Lion Bioscience AG, priority 1998, dated 2003).

In test [1] the target is T1, MCR-4 (Homo sapiens, UniProt P32245).
T1 construct: expressed in transfected cells; host or cells: HEK 293
The test can be described thus: Melanocortin receptor binding assay, competition with 125I-HP 467, HEK 293 cells expressing hMCR-4. The conditions noted are these: read-out: MC-4 IC50. An outline of the steps:
(§1)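 Intact-cell competition binding, 2.5 hr at 37 °C, in PBS/10% calf serum/1 mM CaCl2; hMCR-4 cells at 4×10^3 per tube, hMCR-1 cells at 2×10^4 per tube. Filtration on BSA/CaCl2-soaked GF/B, cold 50 mM Tris pH 7.4 washes, scintillation count.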

Test [2] addresses T2, MCR-1 (Homo sapiens, UniProt Q01726).
T2 construct: expressed in transfected cells; host or cells: HEK 293
The test can be described thus: Melanocortin receptor binding assay, competition with 125I-HP 467, HEK 293 cells expressing hMCR-1. The conditions noted are these: for IC50: read-out: MC-1 IC50. An outline of the steps:
as §1

The mark [3] stands for this setting: competition with 125I-HP 467, HEK 293 cells expressing MCR-4.
Where [4] appears, read: competition with 125I-HP 467, HEK 293 cells expressing MCR-1.
[5] abbreviates: inhibition of binding of 125I-HP 467, HEK 293 cells expressing MCR-4.
Where [6] appears, read: inhibition of binding of 125I-HP 467, HEK 293 cells expressing MCR-1.

Each structure is given as a SMILES string. Read-outs that look alike come from different tables or passages of the source.

T1 sequence (P32245 whole entry): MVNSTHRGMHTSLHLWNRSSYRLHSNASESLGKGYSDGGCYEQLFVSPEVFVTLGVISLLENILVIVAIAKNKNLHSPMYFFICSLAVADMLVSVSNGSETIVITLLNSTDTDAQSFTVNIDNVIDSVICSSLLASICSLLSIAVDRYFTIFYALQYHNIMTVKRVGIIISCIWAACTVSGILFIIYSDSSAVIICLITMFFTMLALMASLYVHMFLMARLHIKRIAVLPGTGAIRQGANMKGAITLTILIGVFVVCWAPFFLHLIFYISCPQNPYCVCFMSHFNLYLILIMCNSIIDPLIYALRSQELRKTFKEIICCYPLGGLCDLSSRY
T2 sequence (Q01726 whole entry): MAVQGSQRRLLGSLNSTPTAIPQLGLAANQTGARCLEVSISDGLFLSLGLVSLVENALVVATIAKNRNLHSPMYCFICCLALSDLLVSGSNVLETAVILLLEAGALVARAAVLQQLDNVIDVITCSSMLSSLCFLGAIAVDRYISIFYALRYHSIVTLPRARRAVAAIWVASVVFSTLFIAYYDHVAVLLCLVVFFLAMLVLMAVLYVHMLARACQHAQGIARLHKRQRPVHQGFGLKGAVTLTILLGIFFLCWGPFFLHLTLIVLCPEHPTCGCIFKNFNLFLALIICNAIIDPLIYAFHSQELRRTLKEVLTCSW

One may read the IC50 as the concentration that gives 50% inhibition. Consider `CCNc1ccc(C2C(CNCCc3ccccc3)c3ccccc3CN2CCCCC(CN)NCc2ccccc2)cc1` (stereo not shown) [TRG 2411-43], for which the IC50 in test [1] (setting [3]) was 1030 nM; in test [2] (setting [4]), 190 nM.
Taken in the same sequence, the figures for `CCNc1ccc(C2C(CNCCc3ccccc3)c3ccccc3CN2CCCCC(CN)NCc2ccc(OC)cc2)cc1` (stereo not shown) [TRG 2411-45] were 840 nM and 120 nM.
Taken in the same sequence, the figures for `CCNc1ccc(C2C(CNCCc3ccccc3)c3ccccc3CN2CCCCC(CN)NCCc2ccc3ccccc3c2)cc1` (stereo not shown) [TRG 2411-46] were 1330 nM and 890 nM.
As for `CCNc1ccc(C2C(CNC3CCCCC3)c3ccccc3CN2CCCCC(CN)NCCc2ccc(Br)cc2)cc1` (stereo not shown) [TRG 2411-52], the IC50 was found to be 860 nM in test [1] (setting [3]) and 550 nM in test [2] (setting [4]).
Take `CCNc1ccc(C2C(CNC3CCCCC3)c3ccccc3CN2CCCCC(CN)NCCc2ccc(OC)cc2)cc1` (stereo not shown) [TRG 2411-53]: the IC50 came out at 1650 nM in test [1] (setting [3]) and 280 nM in test [2] (setting [4]).
In the case of `CCNc1ccc(C2C(CNC3CCCCC3)c3ccccc3CN2CCCCC(CN)NCc2ccccc2)cc1` (stereo not shown) [TRG 2411-54], the results for the IC50 in test [1] (setting [3]) and in test [2] (setting [4]) were 1790 nM and 130 nM, respectively.
For `CCNc1ccc(C2C(CNC3CCCCC3)c3ccccc3CN2CCCCC(CN)NCc2ccc(Cl)cc2)cc1` (stereo not shown) [TRG 2411-55] the same measures were 2050 nM and 90 nM.
Taken in the same sequence, the figures for `CCNc1ccc(C2C(CNC3CCCCC3)c3ccccc3CN2CCCCC(CN)NCCc2ccc3ccccc3c2)cc1` (stereo not shown) [TRG 2411-57] were 1190 nM and 920 nM.
As to `CCNc1ccc(C2C(CNC3CCCCC3)c3ccccc3CN2CCCC[C@@H](CN)NCCC2CCCCC2)cc1` (stereo partly shown) [TRG 2411-58], the figures for the IC50 in test [1] (setting [3]) and in test [2] (setting [4]) were 1110 nM and 220 nM, respectively.
Consider `CCNc1ccc(C2C(CN)c3ccccc3CN2CCCCC(CN)NCCc2ccccc2)cc1` (stereo not shown) [TRG 2411-63], for which the IC50 in test [1] (setting [3]) is 1820 nM; in test [2] (setting [4]), 240 nM.
For `CCCCNc1ccc(C2C(CNCCc3ccccc3)c3ccccc3CN2CCCCC(CN)NCC)cc1` (stereo not shown) [TRG 2411-74] the same measures were 2240 nM and 110 nM.
Taken in the same sequence, the figures for `CCCCNc1ccc(C2C(CNCCc3ccccc3)c3ccccc3CN2CCCCC(CN)NCCCC)cc1` (stereo not shown) [TRG 2411-75] were 1050 nM and 130 nM.
Taken in the same sequence, the figures for `CCCCNc1ccc(C2C(CNCCc3ccccc3)c3ccccc3CN2CCCCC(CN)NCCc2ccccc2)cc1` (stereo not shown) [TRG 2411-77] were 1490 nM and 220 nM.
On to `CCCCNc1ccc(C2C(CNCCc3ccccc3)c3ccccc3CN2CCCCC(CN)NCCc2ccc(Br)cc2)cc1` (stereo not shown) [TRG 2411-78], for which the IC50 in test [1] (setting [3]) is 1320 nM; in test [2] (setting [4]), 450 nM.
In the case of `CCCCNc1ccc(C2C(CNCCc3ccccc3)c3ccccc3CN2CCCCC(CN)NCc2ccccc2)cc1` (stereo not shown) [TRG 2411-80], the results for the IC50 in test [1] (setting [3]) and in test [2] (setting [4]) were 1830 nM and 170 nM, respectively.
Taken in the same sequence, the figures for `CCCCNc1ccc(C2C(CNCCc3ccccc3)c3ccccc3CN2CCCCC(CN)NCc2ccc(Cl)cc2)cc1` (stereo not shown) [TRG 2411-81] were 1380 nM and 180 nM.
Turning to `CCCCNc1ccc(C2C(CNCCc3ccccc3)c3ccccc3CN2CCCCC(CN)NCc2ccc(OC)cc2)cc1` (stereo not shown) [TRG 2411-82], the IC50 in test [1] (setting [3]) turned out to be 1460 nM; in test [2] (setting [4]), 290 nM.
Taken in the same sequence, the figures for `CCCCNc1ccc(C2C(CNCCc3ccccc3)c3ccccc3CN2CCCCC(CN)NCCc2ccc3ccccc3c2)cc1` (stereo not shown) [TRG 2411-83] were 1060 nM and 570 nM.
For `CCCCNc1ccc(C2C(CNCCc3ccccc3)c3ccccc3CN2CCCCC(CN)NCCC2CCCCC2)cc1` (stereo not shown) [TRG 2411-84] the same measures were 760 nM and 220 nM.
Taken in the same sequence, the figures for `CCCCNc1ccc(C2C(CNC3CCCCC3)c3ccccc3CN2CCCCC(CN)NCCCC)cc1` (stereo not shown) [TRG 2411-88] were 1500 nM and 240 nM.
With `CCCCNc1ccc(C2C(CNC3CCCCC3)c3ccccc3CN2CCCCC(CN)NCCc2ccccc2)cc1` (stereo not shown) [TRG 2411-90], the IC50 in test [1] (setting [3]) amounted to 1170 nM; in test [2] (setting [4]) it was 250 nM.
In the case of `CCCCNc1ccc(C2C(CNC3CCCCC3)c3ccccc3CN2CCCCC(CN)NCc2ccc(Cl)cc2)cc1` (stereo not shown) [TRG 2411-94], the IC50 in test [1] (setting [3]) was found to be 1710 nM; in test [2] (setting [4]), 90 nM.
Taken in the same sequence, the figures for `CCCCNc1ccc(C2C(CNC3CCCCC3)c3ccccc3CN2CCCCC(CN)NCc2ccc(OC)cc2)cc1` (stereo not shown) [TRG 2411-95] were 1030 nM and 110 nM.
For `CCCCNc1ccc(C2C(CNC3CCCCC3)c3ccccc3CN2CCCCC(CN)NCCc2ccc3ccccc3c2)cc1` (stereo not shown) [TRG 2411-96] the same measures were 1650 nM and 600 nM.
For `CCCCNc1ccc(C2C(CN)c3ccccc3CN2CCCCC(CN)NCCCC)cc1` (stereo not shown) [TRG 2411-102] the same measures were 1170 nM and 90 nM.
In the case of `CCCCNc1ccc(C2C(CN)c3ccccc3CN2CCCCC(CN)NCCc2ccccc2)cc1` (stereo not shown) [TRG 2411-104], the values for the IC50 in test [1] (setting [3]) and in test [2] (setting [4]) were 590 nM and 160 nM, respectively.
Taken in the same sequence, the figures for `CCCCNc1ccc(C2C(CN)c3ccccc3CN2CCCCC(CN)NCCc2ccc(Br)cc2)cc1` (stereo not shown) [TRG 2411-105] were 910 nM and 210 nM.
For `CCCCNc1ccc(C2C(CN)c3ccccc3CN2CCCCC(CN)NCc2ccc(OC)cc2)cc1` (stereo not shown) [TRG 2411-109] the same measures were 1400 nM and 100 nM.
Take `CCCCNc1ccc(C2C(CN)c3ccccc3CN2CCCCC(CN)NCCc2ccc3ccccc3c2)cc1` (stereo not shown) [TRG 2411-110]: the IC50 turned out to be 1050 nM in test [1] (setting [3]) and 100 nM in test [2] (setting [4]).
Regarding `CCCCNc1ccc(C2C(CN)c3ccccc3CN2CCCCC(CN)NCCC2CCCCC2)cc1` (stereo not shown) [TRG 2411-111], the results for the IC50 in test [1] (setting [3]) and in test [2] (setting [4]) were 1470 nM and 40 nM, respectively. In addition, in test [2] (binding to MC receptors, Table 1), the “effectiveness as MC receptor ligand” value is on record as “particularly effective MC receptor ligands”.
As to `CCCCNc1ccc(C2C(CN)c3ccccc3CN2CCCCC(CN)NCCN)cc1` (stereo not shown) [TRG 2411-112], the results for the IC50 in test [1] (setting [3]) and in test [2] (setting [4]) were 1450 nM and 200 nM, respectively.
In the case of `CCNC(CN)CCCN1Cc2ccccc2C(CNCCc2ccccc2)C1c1ccc(-c2ccccc2)cc1` (stereo not shown) [TRG 2411-115], the values for the IC50 in test [1] (setting [3]) and in test [2] (setting [4]) were 1430 nM and 820 nM, respectively.
Taken in the same sequence, the figures for `NCC(CCCN1Cc2ccccc2C(CNCCc2ccccc2)C1c1ccc(-c2ccccc2)cc1)NCCc1ccccc1` (stereo not shown) [TRG 2411-116] were 1980 nM and 1240 nM.
For `NCC(CCCN1Cc2ccccc2C(CNCCc2ccccc2)C1c1ccc(-c2ccccc2)cc1)NCc1ccccc1` (stereo not shown) [TRG 2411-126] the same measures were 1490 nM and 1320 nM.
Taken in the same sequence, the figures for `CCCCNC(CN)CCCN1Cc2ccccc2C(CNC2CCCCC2)C1c1ccc(-c2ccccc2)cc1` (stereo not shown) [TRG 2411-133] were 1590 nM and 1460 nM.
`COCCNC(CN)CCCN1Cc2ccccc2C(CN)C1c1ccc(-c2ccccc2)cc1` (stereo not shown) [TRG 2411-146]: the results for the IC50 in test [1] (setting [3]) and in test [2] (setting [4]) were 1460 nM and 1220 nM, respectively.
Turning to `CCCCNC(CN)CCCN1Cc2ccccc2C(CN)C1c1ccc(-c2ccccc2)cc1` (stereo not shown) [TRG 2411-147], the IC50 in test [1] (setting [3]) amounted to 1190 nM; in test [2] (setting [4]), 1260 nM.
Taken in the same sequence, the figures for `NCC(CCCN1Cc2ccccc2C(CN)C1c1ccc(-c2ccccc2)cc1)NCC1CCCCC1` (stereo not shown) [TRG 2411-148] were 1960 nM and 960 nM.
In the case of `NCC(CCCN1Cc2ccccc2C(CN)C1c1ccc(-c2ccccc2)cc1)NCc1ccccc1` (stereo not shown) [TRG 2411-149], the results for the IC50 in test [1] (setting [3]) and in test [2] (setting [4]) were 490 nM and 1170 nM, respectively.
Regarding `CCNc1ccc(C2C(CNCCc3ccccc3)c3ccccc3CN2CCCC(N)CN)cc1` (stereo not shown) [TRG 2411-150], the IC50 came to 4540 nM in test [1] (setting [5]) and 120 nM in test [2] (setting [6]).
As for `CCNc1ccc(C2C(CNCCc3ccccc3)c3ccccc3CN2CCCC(CN)NC)cc1` (stereo not shown) [TRG 2411-151], the values for the IC50 in test [1] (setting [5]) and in test [2] (setting [6]) were 1780 nM and 90 nM, respectively.
Taken in the same sequence, the figures for `CCNc1ccc(C2C(CNCCc3ccccc3)c3ccccc3CN2CCCC(CN)NCC)cc1` (stereo not shown) [TRG 2411-152] were 520 nM and 60 nM.
Taken in the same sequence, the figures for `CCCCNC(CN)CCCN1Cc2ccccc2C(CNCCc2ccccc2)C1c1ccc(NCC)cc1` (stereo not shown) [TRG 2411-153] were 590 nM and 80 nM.
With `CCNc1ccc(C2C(CNCCc3ccccc3)c3ccccc3CN2CCCC(CN)NCCc2ccccc2)cc1` (stereo not shown) [TRG 2411-155], the values for the IC50 in test [1] (setting [5]) and in test [2] (setting [6]) were 720 nM and 90 nM, respectively.
Taken in the same sequence, the figures for `CCNc1ccc(C2C(CNCCc3ccccc3)c3ccccc3CN2CCCC(CN)NCCc2ccc(Br)cc2)cc1` (stereo not shown) [TRG 2411-156] were 660 nM and 120 nM.
For `CCNc1ccc(C2C(CNCCc3ccccc3)c3ccccc3CN2CCCC(CN)NCCc2ccc(OC)cc2)cc1` (stereo not shown) [TRG 2411-157] the same measures were 670 nM and 110 nM.
Taken in the same sequence, the figures for `CCNc1ccc(C2C(CNCCc3ccccc3)c3ccccc3CN2CCCC(CN)NCc2ccccc2)cc1` (stereo not shown) [TRG 2411-158] were 410 nM and 100 nM.
Regarding `CCNc1ccc(C2C(CNCCc3ccccc3)c3ccccc3CN2CCCC(CN)NCc2ccc(Cl)cc2)cc1` (stereo not shown) [TRG 2411-159], the IC50 in test [1] (setting [5]) stood at 350 nM; in test [2] (setting [6]), 100 nM.
Taken in the same sequence, the figures for `CCNc1ccc(C2C(CNCCc3ccccc3)c3ccccc3CN2CCCC(CN)NCc2ccc(OC)cc2)cc1` (stereo not shown) [TRG 2411-160] were 510 nM and 90 nM.
Taken in the same sequence, the figures for `CCNc1ccc(C2C(CNCCc3ccccc3)c3ccccc3CN2CCCC(CN)NCCc2ccc3ccccc3c2)cc1` (stereo not shown) [TRG 2411-161] were 640 nM and 160 nM.
Taken in the same sequence, the figures for `CCNc1ccc(C2C(CNCCc3ccccc3)c3ccccc3CN2CCCC(CN)NCCC2CCCCC2)cc1` (stereo not shown) [TRG 2411-162] were 1220 nM and 110 nM.
